Results from patent US7488740B2, “Substituted quinolin-4-ylamine analogues” (Neurogen Corporation, priority 2003, dated 2009).

Target: T1, human capsaicin receptor (Homo sapiens, UniProt Q8NER1)
T1 construct: A cDNA encoding full length human capsaicin receptor recited in U.S. Pat. No. 6,482,611 was subcloned in the plasmid pBK-CMV; expressed in transfected cells
Experiment: Calcium mobilization assay (Example 6)
Assay type: cell-based
Conditions: concentration required to provide a 50% decrease in the fluorescence response of cells exposed to one IC50 of capsaicin
How it was run: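 HEK293 clonal lines stably expressing full-length human capsaicin receptor, Fluo-3 AM loaded in KRH buffer pH 7.4. Compounds (final 1-5 μM) preincubated 0.5-6 h at room temperature in the dark, then capsaicin added at its predetermined IC50 concentration. FLIPR calcium signal at 30-60 s; IC50 = antagonist concentration giving 50% decrease.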

T1 sequence (Q8NER1 whole entry): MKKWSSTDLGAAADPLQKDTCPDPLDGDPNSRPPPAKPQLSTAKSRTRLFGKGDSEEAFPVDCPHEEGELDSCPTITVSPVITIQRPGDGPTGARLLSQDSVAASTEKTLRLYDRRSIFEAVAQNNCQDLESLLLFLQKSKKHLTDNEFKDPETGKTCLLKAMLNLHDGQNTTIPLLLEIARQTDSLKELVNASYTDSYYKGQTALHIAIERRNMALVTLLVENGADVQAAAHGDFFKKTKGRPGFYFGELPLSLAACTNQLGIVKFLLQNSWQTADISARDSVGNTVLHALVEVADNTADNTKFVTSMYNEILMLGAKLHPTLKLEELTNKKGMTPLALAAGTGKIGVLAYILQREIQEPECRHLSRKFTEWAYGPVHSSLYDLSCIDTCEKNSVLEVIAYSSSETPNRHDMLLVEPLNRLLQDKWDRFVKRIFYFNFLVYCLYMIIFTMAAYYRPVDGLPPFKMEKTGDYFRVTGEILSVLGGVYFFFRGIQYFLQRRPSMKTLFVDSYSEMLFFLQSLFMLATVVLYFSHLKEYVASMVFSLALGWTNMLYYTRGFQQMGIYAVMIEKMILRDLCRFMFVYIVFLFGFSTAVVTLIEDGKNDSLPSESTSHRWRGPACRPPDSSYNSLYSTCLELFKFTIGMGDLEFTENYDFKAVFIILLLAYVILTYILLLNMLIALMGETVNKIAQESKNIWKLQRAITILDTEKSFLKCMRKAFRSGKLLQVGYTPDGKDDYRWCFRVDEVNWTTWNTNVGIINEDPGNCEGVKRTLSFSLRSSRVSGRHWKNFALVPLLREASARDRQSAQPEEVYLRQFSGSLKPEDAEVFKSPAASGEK

SMILES	IC50 [nM]
COCc1cc(Nc2ccc(C(F)(F)F)cc2)c2ccc(-c3ncccc3C(F)(F)F)nc2n1 [Compound 2]	≤ 1000
CC(C)COCc1cc(Nc2ccc(F)cc2)c2ccc(-c3ncccc3C(F)(F)F)nc2n1 [Compound 54, N-(4-fluorophenyl)-2-(isobutoxymethyl)-7-[3-(trifluoromethyl)pyridin-2-yl]-1,8-naphthyridin-4-amine]	≤ 1000
CC(C)CNCc1cc(Nc2ccc(C(F)(F)F)cc2)c2ccc(-c3ncccc3C(F)(F)F)nc2n1 [Compound 59, 2-[(isobutylamino)methyl]-N-[4-(trifluoromethyl)phenyl]-7-[3-(trifluoromethyl)pyridin-2-yl]-1,8-naphthyridin-4-amine]	≤ 1000
CCOc1cc(Nc2ccc(S(=O)(=O)C(F)(F)F)cc2)c2ccc(-c3ncccc3C(F)(F)F)nc2n1 [Compound 46, 2-ethoxy-7-[3-(trifluoromethyl)pyridin-2-yl]-N-{4-[(trifluoromethyl)sulfonyl]phenyl}-1,8-naphthyridin-4-amine]	≤ 1000
CCOCc1cc(Nc2ccc(C(F)(F)F)cc2)c2ccc(-c3ncccc3C(F)(F)F)nc2n1 [Compound 40, 2-(ethoxymethyl)-N-[4-(trifluoromethyl)phenyl]-7-[3-(trifluoromethyl)pyridin-2-yl]-1,8-naphthyridin-4-amine]	≤ 1000
CC(C)C(=O)N(C)Cc1cc(Nc2ccc(C(F)(F)F)cc2)c2ccc(-c3ncccc3C(F)(F)F)nc2n1 [Compound 75, N,2-dimethyl-N-({4-{[4-(trifluoromethyl)phenyl]amino}-7-[3-(trifluoromethyl)pyridin-2-yl]-1,8-naphthyridin-2-yl}methyl)propanamide]	≤ 1000
FC(F)(F)c1ccc(Nc2cc(CN3CCOCC3)nc3nc(-c4ncccc4C(F)(F)F)ccc23)nc1 [Compound 91, 2-(morpholin-4-ylmethyl)-7-[3-(trifluoromethyl)pyridin-2-yl]-N-[5-(trifluoromethyl)pyridin-2-yl]-1,8-naphthyridin-4-amine]	≤ 1000
C[C@@H](OCc1cc(Nc2ccc(C(F)(F)F)cc2)c2ccc(-c3ncccc3C(F)(F)F)nc2n1)C(C)(C)O [Compound 86, 2-methyl-3-({4-{[4-(trifluoromethyl)phenyl]amino}-7-[3-(trifluoromethyl)pyridin-2-yl]-1,8-naphthyridin-2-yl}methoxy)butan-2-ol]	≤ 1000
FC(F)(F)c1ccc(Nc2ccnc3nc(-c4ncccc4C(F)(F)F)cnc23)nc1 [Compound 113, 3-[3-(trifluoromethyl)pyridin-2-yl]-N-[5-(trifluoromethyl)pyridin-2-yl]pyrido[2,3-b]pyrazin-8-amine]	≤ 1000
CC(C)COCc1cc(Nc2ccc(S(=O)(=O)C(F)(F)F)cc2)c2ccc(-c3ncccc3C(F)(F)F)nc2n1 [Compound 74, 2-(isobutoxymethyl)-7-[3-(trifluoromethyl)pyridin-2-yl]-N-{4-[(trifluoromethyl)sulfonyl]phenyl}-1,8-naphthyridin-4-amine]	≤ 1000
N#Cc1ccc(Nc2cc(C3CCC3)nc3nc(-c4ncccc4C(F)(F)F)ccc23)nc1 [Compound 100, 6-({2-cyclobutyl-7-[3-(trifluoromethyl)pyridin-2-yl]-1,8-naphthyridin-4-yl}amino)nicotinonitrile]	≤ 1000
CCCCNc1cc(Nc2ccc(C(C)(C)C)cc2)c2ccc(-c3ncccc3C(F)(F)F)cc2n1 [Compound 27, N~2~-butyl-N~4~-(4-tert-butylphenyl)-7-[3-(trifluoromethyl)pyridin-2-yl]quinoline-2,4-diamine]	≤ 1000
FC(F)(F)c1ccc(Nc2ccnc3nc(-c4ncccc4C(F)(F)F)ccc23)nc1 [Compound 106, 7-[3-(trifluoromethyl)pyridin-2-yl]-N-[5-(trifluoromethyl)pyridin-2-yl]-1,8-naphthyridin-4-amine]	≤ 1000
CC(C)COCc1cc(Nc2ccc(C(C)(C)O)cc2)c2ccc(-c3ncccc3Cl)nc2n1 [Compound 64, 2-(4-{[7-(3-chloropyridin-2-yl)-2-(isobutoxymethyl)-1,8-naphthyridin-4-yl]amino}phenyl)propan-2-ol]	≤ 1000
CCCc1cc(Nc2ccc(C(F)(F)F)cn2)c2ccc(-c3ncccc3C(F)(F)F)nc2n1 [Compound 114, 2-propyl-7-[3-(trifluoromethyl)pyridin-2-yl]-N-[5-(trifluoromethyl)pyridin-2-yl]-1,8-naphthyridin-4-amine]	≤ 1000
FC(F)(F)c1ccc(Nc2cc(CN3CCCC3)nc3nc(-c4ncccc4C(F)(F)F)ccc23)nc1 [Compound 95, 2-(pyrolidin-1-ylmethyl)-7-[3-(trifluoromethyl)pyridin-2-yl]-N-[5-(trifluoromethyl)pyridin-2-yl]-1,8-naphthyridin-4-amine]	≤ 1000
COC(C)c1cc(Nc2ccc(C(F)(F)F)cn2)c2ccc(-c3ncccc3C(F)(F)F)nc2n1 (stereo not drawn) [Compound 119, 2-(1-methoxyethyl)-7-[3-(trifluoromethyl)pyridin-2-yl]-N-[5-(trifluoromethyl)pyridin-2-yl]-1,8-naphthyridin-4-amine]	≤ 1000

SMILES	IC50 [nM]
CC(C)COCc1cc(Nc2ccc(S(=O)(=O)C(C)C)cc2)c2ccc(-c3ncccc3C(F)(F)F)nc2n1 [Compound 72, 2-(isobutoxymethyl)-N-[4-(isopropylsulfonyl)phenyl]-7-[3-(trifluoromethyl)pyridin-2-yl]-1,8-naphthyridin-4-amine]	≤ 1000
CC(C)COCc1cc(Nc2ccc(S(C)(=O)=O)cc2)c2ccc(-c3ncccc3C(F)(F)F)nc2n1 [Compound 65, 2-(isobutoxymethyl)-N-[4-(methylsulfonyl)phenyl]-7-[3-(trifluoromethyl)pyridin-2-yl]-1,8-naphthyridin-4-amine]	≤ 1000
CCOc1cc(Nc2ccc(C(C)(C)C)cc2)c2ccc(-c3ncccc3C(F)(F)F)nc2n1 [Compound 37, N-(4-tert-butylphenyl)-2-ethoxy-7-[3-(trifluoromethyl)pyridin-2-yl]-1,8-naphthyridin-4-amine]	≤ 1000
Cc1ccc(Nc2ccnc3nc(-c4ncccc4C(F)(F)F)ccc23)nc1 [Compound 140, N-(5-methylpyridin-2-yl)-7-[3-(trifluoromethyl)pyridin-2-yl]-1,8-naphthyridin-4-amine]	≤ 1000
FC(F)(F)c1ccc(Nc2ccnc3nc(-c4ncccc4C(F)(F)F)ccc23)cn1 [Compound 142, 7-[3-(trifluoromethyl)pyridin-2-yl]-N-[6-(trifluoromethyl)pyridin-3-yl]-1,8-naphthyridin-4-amine]	≤ 1000
COCc1cc(Nc2ccc(Cl)c(F)c2)c2ccc(-c3ncccc3C(F)(F)F)nc2n1 [Compound 10, N-(4-chloro-3-fluorophenyl)-2-(methoxymethyl)-7-[3-(trifluoromethyl)pyridin-2-yl]-1,8-naphthyridin-4-amine]	≤ 1000
Cc1ccc(Nc2cc(C(C)C)nc3nc(-c4ncccc4C(F)(F)F)ccc23)nc1 [Compound 103, 2-isopropyl-N-(5-methylpyridin-2-yl)-7-[3-(trifluoromethyl)pyridin-2-yl]-1,8-naphthyridin-4-amine]	≤ 1000
CC(C)CCNc1cc(Nc2ccc(C(C)(C)C)cc2)c2ccc(-c3ncccc3C(F)(F)F)cc2n1 [Compound 29, N~4~-(4-tert-butylphenyl)-N~2~-isopentyl-7-[3-(trifluoromethyl)pyridin-2-yl]quinoline-2,4-diamine]	≤ 1000
FC(F)(F)c1cnc(Nc2ccnc3nc(-c4ncccc4Cl)ccc23)cn1 [Compound 138, 7-(3-chloropyridin-2-yl)-N-[5-(trifluoromethyl)pyrazin-2-yl]-1,8-naphthyridin-4-amine]	≤ 1000
CCOc1cc(Nc2ccc(C(F)(F)F)cc2)c2ccc(-c3ncccc3C(F)(F)F)nc2n1 [Compound 36, 2-ethoxy-N-[4-(trifluoromethyl)phenyl]-7-[3-(trifluoromethyl)pyridin-2-yl]-1,8-naphthyridin-4-amine]	≤ 1000
COCc1cc(Nc2ccc(S(=O)(=O)C(F)(F)F)cc2)c2ccc(-c3ncccc3C(F)(F)F)nc2n1 [Compound 15, 2-(methoxymethyl)-7-[3-(trifluoromethyl)pyridin-2-yl]-N-{4-[(trifluoromethyl)sulfonyl]phenyl}-1,8-naphthyridin-4-amine]	≤ 1000
FC(F)(F)c1cnc(Nc2ccnc3nc(-c4ncccc4C(F)(F)F)ccc23)cn1 [Compound 131, N-[5-(trifluoromethyl)pyrazin-2-yl]-7-[3-(trifluoromethyl)pyridin-2-yl]-1,8-naphthyridin-4-amine]	≤ 1000
CC(C)CN(CC(=O)O)Cc1cc(Nc2ccc(C(F)(F)F)cc2)c2ccc(-c3ncccc3C(F)(F)F)nc2n1 [Compound 81, N-isobutyl-N-({4-{[4-(trifluoromethyl)phenyl]amino}-7-[3-(trifluoromethyl)pyridin-2-yl]-1,8-naphthyridin-2-yl}methyl)glycine]	≤ 1000
NC(=O)c1cc(Nc2ccc(C(F)(F)F)cn2)c2ccc(-c3ncccc3C(F)(F)F)nc2n1 [Compound 126, 7-[3-(trifluoromethyl)pyridin-2-yl]-4-{[5-(trifluoromethyl)pyridin-2-yl]amino}-1,8-naphthyridine-2-carboxamide]	≤ 1000
Cc1cccnc1-c1ccc2c(Nc3ccc(C(F)(F)F)cn3)ccnc2n1 [Compound 135, 7-(3-methylpyridin-2-yl)-N-[5-(trifluoromethyl)pyridin-2-yl]-1,8-naphthyridin-4-amine]	≤ 1000
OCc1cc(Nc2ccc(C(F)(F)F)cn2)c2ccc(-c3ncccc3C(F)(F)F)nc2n1 [Compound 88, (7-[3-(trifluoromethyl)pyridin-2-yl]-4-{[5-(trifluoromethyl)pyridin-2-yl]amino}-1,8-naphthyridin-2-yl)methanol]	≤ 1000
